In US20250345378A1 (priority 2022, published 2025):
Read-outs that look alike come from different tables or passages of the source.

Assays:
[1] = system: 88 urinary tract infection E. coli isolates; assay type: cell-based, Escherichia coli; settings: for Host Range % on MDR Subset (n = 21), Combination: Antibiotic + LBP-EC01 v.2 / Host Range % on all Strains (n = 88), Combination: Antibiotic + LBP-EC01 v.2 / Host Range % on Beta-lactam-Resistant Subset (n = 31), Combination: Antibiotic + LBP-EC01 v.2: antibiotic combined with LBP-EC01 v.2; for Host Range % on all Strains (n = 88), Combination: Antibiotic + CK618 v.2: antibiotic at breakpoint concentration plus cocktail 1 × 10^6 PFU/ml per bacteriophage
Description: (§1) Phage cocktail CK618 was tested in combination with and alongside antibiotics against two isolate panels. The first assay used a panel of 88 contemporaneous urinary tract infection (UTI) isolates from North America, Europe, Latin America, and Asia. […] The second assay used a panel made up of a 300-strain clinical isolate panel (Table 14) with an additional 4 strains of interest. […] Four of the same SOC antibiotics tested against the 88-isolate panel were tested against this panel. The non-SOC antibiotics were not included due to their limited use in clinical settings, and nitrofurantoin was not included due to the low probability of resistance to this drug.
(§2) For both isolate panels, antibiotic concentrations tested were determined by using Clinical and Laboratory Standards Institute (CLSI) or European Committee on Antimicrobial Susceptibility Testing (EUCAST) breakpoints at concentrations that kill susceptible isolates but allow intermediate or resistant isolates to grow in the standard AST microdilution assay (Table 17).
(§3) The composition of the proposed Phase 2 CRISPR-enhanced bacteriophage (CRISPR-phage, hereafter termed ‘crPhage’) cocktail (CK618) has been updated from the CK570 to include six bacteriophages as compared to three bacteriophages in CK570. Bacteriophage cocktail CK618, was prepared such that all bacteriophages had equivalent titers in the final cocktail. The cocktail was then mixed with bacteria to obtain final titers of 1×10^6 plaque-forming unit (PFU)/mL/phage for the cocktail and 1×10^5 colony-forming unit (CFU)/mL for the bacteria, resulting in a multiplicity of infection (MOI) of 10 for each bacteriophage in a sample. Briefly, 5 μl of each sample (CK618 alone, CK618 and antibiotics, antibiotics alone, or medium alone) was added to 5 μl of optical density (OD)-normalized bacterial isolate and 40 μl LB medium. Reactions were incubated at 37° C. with shaking and OD measurements were taken each hour for 20 hours.
(§4) Host range percentage is the percent of isolates that responded to treatment of antibiotics or CK618. In the case of the 88-isolate panel, results were analyzed on the complete panel as well as the subset of classified as multidrug-resistant (MDR) (n=21) and beta-lactam-resistant (n=31).
(§5) The first assay used a panel of 88 contemporaneous isolates. Twenty-one of those strains are classified as MDR, with resistance to 3 or more antibiotic classes. […] The second assay used the panel made up of a 300-strain clinical isolate panel with an additional 4 strains of interest.
(§6) Antibiotic concentrations tested were determined by using CLSI or EUCAST breakpoints at concentrations that kill susceptible strains but allow intermediate or resistant strains to grow in the standard AST microdilution assay (Table 27). LBP-EC01 v.2 was combined with bacteria resulting in a MO of 10 for each bacteriophage in a sample. In the case of the 88-isolate panel, results were analyzed on the complete panel as well as the subset of isolates classified as multidrug-resistant (MDR) (n=21) and beta-lactam-resistant (n=31).

[2] = system: 304 E. coli clinical isolates; assay type: cell-based, Escherichia coli; settings: 304-isolate panel
Description: as §1, §2, §3, §4, §5, §6

[3] = 88-isolate panel, MDR subset, single agent
[4] = 88-isolate panel, all strains, single agent
[5] = 88-isolate panel, beta-lactam-resistant subset
[6] = 88-isolate panel, beta-lactam-resistant subset, single agent
[7] = antibiotic at breakpoint concentration (Table 17), cocktail 1 × 10^6 PFU/ml per bacteriophage, MOI 10

## C=CC1=C(C(=O)O)N2C(=O)[C@@H](NC(=O)/C(=N\O)c3csc(N)n3)[C@H]2SC1 [Cefdinir]
[1]; 88-isolate panel
  Host Range % on Beta-lactam-Resistant Subset (n = 31), Combination: Antibiotic + CK618 v.2: 78.5%
  Host Range % on Beta-lactam-Resistant Subset (n = 31), Single agent treatment: 12.9%
  Host Range % on MDR Subset (n = 21), Combination: Antibiotic + CK618 v.2: 74.6%
  Host Range % on MDR Subset (n = 21), Single agent treatment: 14.3%
[1]; 88-isolate panel, MDR subset
  Host Range % on MDR Subset (n = 21), Combination: Antibiotic + LBP-EC01 v.2: 74.6%
[1]; [3]
  Host Range % on MDR Subset (n = 21), Single agent treatment: 14.3%
[1]; 88-isolate panel, all strains
  Host Range % on all Strains (n = 88), Combination: Antibiotic + LBP-EC01 v.2: 87.5%
[1]; [4]
  Host Range % on all Strains (n = 88), Single agent treatment: 48.9%
[1]; [5]
  Host Range % on Beta-lactam-Resistant Subset (n = 31), Combination: Antibiotic + LBP-EC01 v.2: 78.5%
[1]; [6]
  Host Range % on Beta-lactam-Resistant Subset (n = 31), Single agent treatment: 12.9%
[1]; [7]
  Host Range % on all Strains (n = 88), Single agent treatment: 48.9%
[1]
  Host Range % on all Strains (n = 88), Combination: Antibiotic + CK618 v.2: 87.5%

## CC1=C(C(=O)O)N2C(=O)[C@@H](NC(=O)[C@H](N)c3ccccc3)[C@H]2SC1 [Cephalexin]
[2]
  Host range % on MDR subset (n = 93), Combination: Antibiotic + LBP-CK618: 79.6%
  Host range % on MDR subset (n = 93), Single agent treatment: 24.7%
  Host range % on beta-lactam-resistant subset (n = 91), Combination: Antibiotic + LBP-CK618: 79.1%
  Host range % on beta-lactam-resistant subset (n = 91), Single agent treatment: 8.8%
[2]; MDR subset, antibiotic combined with LBP-EC01 v.2
  Host Range % on MDR Subset (n = 93), Combination Antibiotic + LBP-EC01 v.2: 79.6%
[2]; all strains, single agent
  Host Range % on all Strains (n = 304), Single agent treatment: 57.6%
[2]; beta-lactam-resistant subset, antibiotic combined with LBP-EC01 v.2
  Host Range % on Beta-lactam-Resistant Subset (n = 91), Combination: Antibiotic + LBP-EC01 v.2: 79.1%
[2]; beta-lactam-resistant subset, single agent
  Host range % on beta-lactam-resistant subset (n = 91), Single agent treatment: 8.8%
[1]; 88-isolate panel
  Host Range % on Beta-lactam-Resistant Subset (n = 31), Combination: Antibiotic + CK618 v.2: 81.7%
  Host Range % on Beta-lactam-Resistant Subset (n = 31), Single agent treatment: 11.8%
  Host Range % on MDR Subset (n = 21), Combination: Antibiotic + CK618 v.2: 76.2%
  Host Range % on MDR Subset (n = 21), Single agent treatment: 14.3%
[1]; 88-isolate panel, MDR subset
  Host Range % on MDR Subset (n = 21), Combination: Antibiotic + LBP-EC01 v.2: 76.2%
[1]; [3]
  Host Range % on MDR Subset (n = 21), Single agent treatment: 14.3%
[1]; 88-isolate panel, all strains
  Host Range % on all Strains (n = 88), Combination: Antibiotic + LBP-EC01 v.2: 87.9%
[1]; [4]
  Host Range % on all Strains (n = 88), Single agent treatment: 49.2%
[1]; [5]
  Host Range % on Beta-lactam-Resistant Subset (n = 31), Combination: Antibiotic + LBP-EC01 v.2: 81.7%
[1]; [6]
  Host Range % on Beta-lactam-Resistant Subset (n = 31), Single agent treatment: 11.8%
[1]; [7]
  Host Range % on all Strains (n = 88), Single agent treatment: 49.2%
[1]
  Host Range % on all Strains (n = 88), Combination: Antibiotic + CK618 v.2: 87.9%

## CO/N=C(\C(=O)N[C@@H]1C(=O)N2C(C(=O)O)=C(CSc3nc(=O)c(=O)[nH]n3C)CS[C@H]12)c1csc(N)n1 [Ceftriaxone]
[1]; 88-isolate panel
  Host Range % on Beta-lactam-Resistant Subset (n = 31), Combination: Antibiotic + CK618 v.2: 81.7%
  Host Range % on Beta-lactam-Resistant Subset (n = 31), Single agent treatment: 15.1%
  Host Range % on MDR Subset (n = 21), Combination: Antibiotic + CK618 v.2: 77.8%
  Host Range % on MDR Subset (n = 21), Single agent treatment: 20.6%
[1]; 88-isolate panel, MDR subset
  Host Range % on MDR Subset (n = 21), Combination: Antibiotic + LBP-EC01 v.2: 77.8%
[1]; [3]
  Host Range % on MDR Subset (n = 21), Single agent treatment: 20.6%
[1]; 88-isolate panel, all strains
  Host Range % on all Strains (n = 88), Combination: Antibiotic + LBP-EC01 v.2: 92.4%
[1]; [4]
  Host Range % on all Strains (n = 88), Single agent treatment: 64.4%
[1]; [5]
  Host Range % on Beta-lactam-Resistant Subset (n = 31), Combination: Antibiotic + LBP-EC01 v.2: 81.7%
[1]; [6]
  Host Range % on Beta-lactam-Resistant Subset (n = 31), Single agent treatment: 15.1%
[1]; [7]
  Host Range % on all Strains (n = 88), Single agent treatment: 64.4%
[1]
  Host Range % on all Strains (n = 88), Combination: Antibiotic + CK618 v.2: 92.4%
